# Reference: PubChem BioAssay AID1996
# Details: buffer; pH 7.4; 200.0 µM
row,Compound,solubility kinetic [µg/mL]
1,O=C(Nc1nccs1)c1ccc(Cl)c([N+](=O)[O-])c1,6.9
2,COc1ccccc1C(=O)NNC(=O)C(=O)NC(C)C,> 41.9
3,O=C(NCc1cccnc1)Nc1cccc(C(F)(F)F)c1,> 44.3
4,CC1CCCCC12NC(=O)N(CC(=O)c1ccc(Cl)s1)C2=O (centres undefined),8.5
5,CCOc1ccc(C(=O)n2cc(C(=O)OC)c3ccccc32)cc1,< 0.7
6,CC1CCCCC1NC(=O)c1ccncc1 (centres undefined),> 32.7
7,O=C(COC(=O)C1CC1)NCc1ccc(Cl)cc1Cl,41.9
8,COc1cccc(NC(=O)CN(C)C(C)C(=O)N2CCCCC2)c1.O=C(O)C(=O)O (centres undefined),> 63.5
9,CC1(C)CC(=O)C=C(NCC(O)c2ccccc2)C1 (centres undefined),36.7
10,CC(C)(C)C(=O)OCc1nc(-c2ccc(C(F)(F)F)cc2)cs1,< 0.7
11,Cc1cc(Br)ccc1OCCN1CCCC1.O=C(O)C(=O)O,> 56.1
12,COc1ccc(C(C)NC(=O)c2ccncc2)cc1 (centres undefined),36.2
13,CN(NC1OC(=O)c2ccccc21)c1ccc(Cl)cc1[N+](=O)[O-] (centres undefined),> 50.1
14,COc1ccc(CN2CSC(=S)N(Cc3ccc(OC)cc3)C2)cc1,0.8
15,Clc1ccc(-c2nsc(N3CCOCC3)n2)c(Cl)c1,4
16,CC(=O)Nc1cc2c(cc1[N+](=O)[O-])OCCO2,> 35.7
17,CN(Cc1cccc(Cl)c1)C(=O)C1CSC2(C)CCC(=O)N12 (centres undefined),> 50.8
18,CC1=CC(=O)C(C(C)C)=C/C1=N/OS(=O)(=O)c1ccccc1,7.9
19,O=Cc1cnc(N2CCN(c3ccccc3)CC2)s1,> 41
20,O=C(CSc1ccccc1F)NC(=O)c1ccc(Cl)cc1,8.5
21,O=S(=O)(c1ccc(Cl)cc1)N1CCC(n2cccc2)CC1,0.6
22,COC(=O)c1c(NC(=O)C2CC(C)=C(C)CC2C(=O)O)sc2c1CCCCC2 (centres undefined),58.1
23,O=C(O)CN1C(=O)c2ccc(C(=O)c3ccccc3)cc2C1=O,45.8
24,CCOc1ccc(C2(C)CC(=O)N(C)C2=O)cc1 (centres undefined),11.4

row,Compound,solubility kinetic [µg/mL]
1,Cn1cnc2c1c(=O)n(Cc1cccc(F)c1)c(=O)n2C,30.8
2,O=C(CCc1ccccc1)Nc1cccnc1Cl,35.1
3,NS(=O)(=O)c1cccc(NC(=O)c2cccs2)c1,> 42.3
4,O=C(COc1ccccc1)NCC1(N2CCCCC2)CCCCC1,48.3
5,CC(C)N(C(=O)Cc1ccccc1[N+](=O)[O-])C(C)C,> 39.6
6,Cc1ccc(C(=O)Oc2ccc(C(=S)N3CCOCC3)cc2)cc1,2.5
7,O=C(/C=C/c1ccccc1Cl)OCC(=O)N1CCCC1,> 44.1
8,COc1ccc(NC(=O)c2cncn2-c2ccccc2)cc1,42.6
9,Cc1cccc(OCC2CCCN(Cc3nc(C4CC4)no3)C2)c1 (centres undefined),12.8
10,COc1ccc(/C=C/C(=O)OCC(=O)Nc2ncc(Cl)cc2Cl)cc1,8.1
11,S=C(NCc1cccnc1)Nc1cc(Cl)cc(Cl)c1,39.6
12,Cc1ccc(S(=O)(=O)NCCc2nc3ccccc3[nH]2)cc1,36.3
13,CC(C)n1cnnc1SCC(=O)Nc1cccnc1Cl,> 46.8
14,CN(Cc1ccc(F)cc1Cl)S(=O)(=O)c1cccs1,6.8
15,OCCNCCc1c[nH]c2ccc(OCc3ccccc3)cc12,> 46.6
16,CCN(CC(=O)NCc1cccs1)C(=O)CCOc1ccccc1,> 52
17,COc1ccc(C(CNC(=O)c2cc3c(s2)CCCC3)N2CCOCC2)cc1 (centres undefined),36.4
18,O=C(COC(=O)c1ccc(F)c(S(=O)(=O)N2CCOCC2)c1)NCc1ccccc1,> 65.5
19,O=S(=O)(Nc1ccc(F)cc1)c1cccc2nsnc12,> 46.4
20,NS(=O)(=O)c1cc(C(=O)Nc2ccc3c(c2)CCC3)ccc1Cl,4.6
21,CCC(C)NC(=O)CN1C(=O)NC2(CCc3ccccc3C2)C1=O (centres undefined),> 49.4
22,COc1ccc(OCCNC(=O)c2ccc(C)cc2)cc1,36.8
23,Cc1ccc(SCC(=O)Nc2cccc(C)c2)cc1,0.8
24,CCN(CC)CC(=O)Nc1ccc(C)cc1C(=O)c1ccccc1,> 48.7

row,Compound,solubility kinetic [µg/mL]
1,CCOc1ccc(S(=O)(=O)N(C)C2CCCCC2)cc1,18.1
2,CC(C)(C)N1C(=O)NC(=O)/C(=C\c2ccc3c(c2)CCN3CCCCl)C1=O,38
3,COCCCn1c(SCC(=O)N2CCOCC2)nc2ccccc2c1=O,52.2
4,NC(=O)C1CCN(c2ncccc2[N+](=O)[O-])CC1,> 37.5
5,Cn1ncc(Br)c1C(=O)N1CCCCCC1,> 42.9
6,O=C1CC(c2ccsc2)Sc2ccccc2N1 (centres undefined),33.9
7,Cc1ccc(CN2CCN(Cc3ccc(OC(C)C)cc3)CC2CCO)o1 (centres undefined),41.2
8,CSc1cccc(NC(=O)C2(S(=O)(=O)c3ccc(C)cc3)CC2)c1,19.9
9,COc1cccc(CNC(=O)COC(=O)c2nn(C)c(=O)c3ccccc23)c1,> 57.2
10,COc1ccc(N2C(S)=C(C#N)C(=O)NC23CCCCC3)cc1,19.3
11,Cc1[nH]c2ccccc2c1C(c1ccncc1)N1CCC(C)CC1 (centres undefined),> 47.9
12,COc1ccc(NC(=O)/C(=C/c2cccs2)NC(=O)c2ccco2)cc1,5
13,COc1ccc(NC(=O)C2CC(=O)n3c(nc4ccccc43)N2)cc1 (centres undefined),0.3
14,COc1ccc(/C=C(\C#N)C(=O)N2COCC2(C)C)cc1,> 42.9
15,O=C(Nc1ccccc1F)c1cnccn1,> 32.6
16,COc1cc(OC)cc(C(=O)Nc2nnc(-c3cccnc3)o2)c1,> 48.9
17,Cc1nn(CC(=O)NC2CCS(=O)(=O)C2)c(C)c1[N+](=O)[O-] (centres undefined),> 47.4
18,COc1cc2c(cc1OC)CN(Cc1ccc(C)cc1)CC2,35.1
19,Cc1[nH]c2ccccc2c1SCC(=O)N1CCCCCC1,25.8
20,COc1ccc(CNC(=S)Nc2cccc(Cl)c2)cc1,3
21,CC1=C(C(=O)N(C)C)C(c2ccc(C)s2)NC(=S)N1 (centres undefined),31.4
22,NC(=O)c1sc2nc(-c3cccs3)ccc2c1N,6.1
23,CCCc1cc(=O)[nH]c(SCC(=O)Nc2c(C)n(C)n(-c3ccccc3)c2=O)n1,> 62
24,O=C1NCC(COc2cccc3ccccc23)O1 (centres undefined),> 36.5

row,Compound,solubility kinetic [µg/mL]
1,O=C(COC(=O)c1ccc(F)cc1)NC1CC1,> 35.6
2,CS(=O)(=O)c1ccc([C@@H](O)[C@@H](CO)NC(=O)C(Cl)Cl)cc1,> 53.4
3,O=C(O)C(Cc1ccccc1)N1C(=O)c2c(Cl)c(Cl)c(Cl)c(Cl)c2C1=O (centres undefined),> 65
4,CCCCc1noc(-c2c(-c3ccccc3Cl)noc2C)n1,0.6
5,O=C(/C=C/c1ccc(O)c(O)c1)NC(=O)c1ccccc1O,> 44.9
6,O=C(O)c1cc(S(=O)(=O)N2CCOCC2)c[nH]1,> 39
7,Cc1cccc(NC(=S)N(CCN(C)C)C(C)c2cccnc2)c1 (centres undefined),> 51.4
8,Cc1ccccc1NC(=O)c1sc(NC(=O)C2CC2)nc1C,4.8
9,CCCn1c(SCCC(=O)O)nc2ccccc21,> 39.7
10,Cc1ccc(Cl)c(Nc2ccccc2C(=O)[O-])c1Cl.[Na+],> 47.7
11,O=C(O)/C=C/C(=O)Nc1ccc(OC(F)(F)F)cc1,38.8
12,CCOC(=O)CNC(=O)CNC(=O)c1ccc(OC(C)C)cc1,> 48.4
13,Cc1snc(SCc2ccc(F)cc2)c1C#N,3
14,Cc1ccc(Cl)cc1N1C(=O)CC(C)(C)CC1=O,15.7
15,CC(C(=O)Nc1ccc(S(=O)(=O)N2CCCC2)cc1)N1CCN(c2ccccc2O)CC1 (centres undefined),12.6
16,O=C(O)C1CCN(C(=O)COc2ccc(Br)cc2)CC1,> 51.3
17,Cc1sc2ncnc(SCC(=O)N3CCCCC3)c2c1C,5.5
18,CC1(c2ccccc2)NC(=O)N(CC#N)C1=O (centres undefined),34.3
19,O=C(NC1CCCCC1)c1ccccc1C(F)(F)F,38.9
20,O=C1CC(c2ccccc2)CC2=C1C=Nc1ccccc1N2 (centres undefined),37
21,CCOC(=O)c1sc(NC(=O)c2ccoc2C)c(C(N)=O)c1C,7.3
22,O=C(N/C(=C/c1cccnc1)C(=O)N1CCOCC1)c1ccccc1F,> 53.3
23,COc1ccc(NC(=O)c2cc(-c3ccco3)on2)cc1,0.8
24,COc1ccc(CN2CCC(C(=O)c3ccc(F)cc3)CC2)cc1,> 49.1

row,Compound,solubility kinetic [µg/mL]
1,O=C(Nc1nc2ccccc2[nH]1)c1ccc(Br)o1,15.5
2,CN(C)/C=C/C(=O)c1c(F)cccc1F,31.4
3,CC(C)(C)NCc1ccc(OCc2cccs2)cc1.Cl,36.8
4,O=C(Nc1cccc(Cl)c1N1CCOCC1)c1cccs1,1.6
5,COc1cc(N)ccc1NC(=O)c1cc2ccccc2o1,> 42.3
6,CCCS(=O)(=O)N1CCCC(C(=O)Oc2ccccc2Cl)C1 (centres undefined),45.6
7,Cc1ccc(OC(=O)c2ccc(Cl)c([N+](=O)[O-])c2)cn1,42.8
8,O=C(Cc1ccc(Cl)cc1)NCCCNC(=O)c1cccnc1,46.2
9,COc1ccc(N2CCN(c3cc(C)c4ccccc4n3)CC2)cc1,< 0.2
10,Cl.O=C(NCCN1CCCC1)C(c1ccccc1)c1ccccc1,48.9
11,Oc1ccc(/C=N/N2CCCCC2)c(O)c1O,> 35.4
12,CCN(CC)CCN(C(=O)/C=C/c1cccs1)c1nc2ccc(C)cc2s1.Cl,0.6
13,CCCCc1nnc(SCC(=O)NC2CCCCC2)n1C,> 46.6
14,Cc1cccc(C(=O)N[C@H](C(=O)NCc2cccs2)C(C)C)c1,7.5
15,COc1ccc(NC(=O)c2cc(-c3ccco3)on2)c(OC)c1,0.8
16,Cc1ccc(C(=O)NCC(=O)Nc2ccncc2)cc1,> 40.4
17,CC1CCN(S(=O)(=O)c2cccc(C(=O)Nc3ccccc3)c2)CC1,1.3
18,CC(C)(C)c1ccc(-c2nc3n(c(=O)c2C#N)CCS3)cc1,3.5
19,Cc1nccn1CCOc1ccc(Cl)cc1.O=C(O)C(=O)O,45
20,N#CC(C#N)=C/C=C(\Nc1ccc(Cl)cc1)c1ccc(Cl)cc1,> 51
21,O=C(c1cc(-c2cccc(O)c2)on1)N1CCCC1,32.6
22,Cc1ccc(NC(=O)CSc2nc(N)cc(=O)[nH]2)cc1S(=O)(=O)N1CCCCC1,46.6
23,CCCCC(=O)Nc1cnc(NC(=O)c2ccco2)cc1C,> 45.2
